For test [1], the system named is human neural stem cells (hNSCs). Put plainly: Neuronal differentiation of human neural stem cells (TUJ-1 staining, concentration response curves). In kind it is cell-based. To be noted: for EC50: Homo sapiens, Neural stem cell; for maximum neuronal differentiation percent of positive control: MKC-231 CRC 0.01-31.6 uM, azakenpaullone CRC 0.001-3.2 uM. An excerpt: Mitogen-free test media with a positive control for neuronal differentiation was used along with basal media without growth factors as a negative control. […]

Test [2] concerns mGlu7 and mGlu8. To be noted: above 1 μM; cited from earlier work.
Test [3] has as its target acetylcholinesterase (AChE) (Homo sapiens, UniProt P22303). The conditions noted are these: cited from earlier work.
Setting [4] is: agent alone, hNSCs, percentage of neuronal positive control, basal media subtracted, read-out: EC50 of neuronal differentiation, agent used alone.

Each structure is given as a SMILES string. Read-outs that look alike come from different tables or passages of the source.

acetylcholinesterase (AChE), sequence (P22303 32-614, species assumed): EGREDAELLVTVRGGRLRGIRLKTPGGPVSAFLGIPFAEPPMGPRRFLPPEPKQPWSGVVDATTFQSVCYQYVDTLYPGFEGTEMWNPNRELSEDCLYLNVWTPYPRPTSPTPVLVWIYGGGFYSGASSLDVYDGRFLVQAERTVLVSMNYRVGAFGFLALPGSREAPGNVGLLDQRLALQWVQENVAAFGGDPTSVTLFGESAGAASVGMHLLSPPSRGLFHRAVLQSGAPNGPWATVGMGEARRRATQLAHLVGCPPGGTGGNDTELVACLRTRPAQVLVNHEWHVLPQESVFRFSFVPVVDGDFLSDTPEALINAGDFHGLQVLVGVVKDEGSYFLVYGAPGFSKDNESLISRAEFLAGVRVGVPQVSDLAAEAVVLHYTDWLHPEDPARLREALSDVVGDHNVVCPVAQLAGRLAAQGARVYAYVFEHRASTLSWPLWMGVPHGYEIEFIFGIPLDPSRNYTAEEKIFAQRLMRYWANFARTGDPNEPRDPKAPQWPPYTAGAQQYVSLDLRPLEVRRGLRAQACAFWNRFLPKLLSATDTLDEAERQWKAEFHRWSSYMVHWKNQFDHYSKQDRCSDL

For `Cc1onc(O)c1CC(N)C(=O)O` (stereo not drawn) [AMPA, α-amino-3-hydroxy-5-methylisoxazole-4-propionic acid], in test [1] (AMPA alone at 0.316 μM), the “effect on differentiation at 0.316 μM” value is “no effect”. The EC50 in test [1] (read-out: EC50 of neuronal differentiation, agent used alone) is around 31.6 µM.
Turning to `N[C@](CC1c2ccccc2Oc2ccccc21)(C(=O)O)[C@H]1C[C@@H]1C(=O)O` [LY341495, (2S)-2-amino-2-(1S,2S-2-carboxycycloprop-1-yl)-3-(xanth-9-yl) propanoic acid], the “activity against mGlu7 and mGlu8 at higher concentrations” value in test [2] is “antagonist activity”.
`Cc1oc2nc3c(c(NC(=O)CN4CCCC4=O)c2c1C)CCCC3` [MKC-231, 2-(2-oxopyrrolidin-1-yl)-N-(2,3-dimethyl-5,6,7,8-tetrahydrofuro[2,3-b]-quinolin-4-yl)acetoamide]: in test [1] (setting [4]), the EC50 is 8.6 µM. Also, the “maximum neuronal differentiation percent of positive control” value in test [1] (hNSCs) worked out at 53%. Also, in test [3], the AChE inhibitory activity result is on record as “does not have such inhibitory activity”.
As to `Clc1ccc2c(c1)N=C(N1CCNCC1)c1ccccc1N2` [N-desmethylclozapine], in test [1] (assays as disclosed herein), the neurogenic activity result is on record as “highly neurogenic”.
As for `CC(C)c1c(C(=O)Nc2ccccc2)c(-c2ccccc2)c(-c2ccc(F)cc2)n1CC[C@@H](O)C[C@@H](O)CC(=O)O` [atorvastatin], in test [1] (setting [4]), the EC50 turned out to be 0.003 µM.
In the case of `O=C1Cc2c([nH]c3ccc(Br)cc23)-c2ncccc2N1` [azakenpaullone], the “maximum neuronal differentiation percent of positive control” value in test [1] (hNSCs) is reported as 120%.
With `C[C@]12CC[C@@H]3c4ccc(O)cc4CC[C@H]3[C@@H]1CC[C@@H]2O` [estradiol], the EC50 in test [1] (agent alone, hNSCs, extrapolated, read-out: EC50 of neuronal differentiation, agent used alone, estimated by extrapolation of the observed data) is 4.4 µM.
Take `O=C1CC[C@@]2(O)[C@H]3Cc4ccc(O)c5c4[C@@]2(CCN3CC2CC2)[C@H]1O5` [naltrexone]: in test [1] (setting [4]), the EC50 is 4.5 µM.
The same measure, in the same setting: in the case of `CN(CCOc1ccc(CC2SC(=O)NC2=O)cc1)c1ccccn1` (stereo not drawn) [rosiglitazone] it was 3.6 µM.

Source of the values: patent publication US7998971B2, “Combinations containing a 4-acylaminopyridine derivative” (BrainCells Inc., priority 2006, dated 2011).
